Measurements published in article PMC10528180 (Foods, 2023).
Where two headings read alike, the source gives them in different places.

Legend:
[1] = biological target: T1, α-glucosidase (Saccharomyces cerevisiae, UniProt P53341); assay: biochemical; details: for inhibition at 500 µM: read-out: α-Glucosidase inhibition
T1 construct: purchased Sigma-Aldrich Co
Procedure: (§1) The other reagents used in this experiment are analytically pure reagents purchased from Sigma-Aldrich Co. (St. Louis, MI, USA) unless specified otherwise.
(§2) The in vitro α-glucosidase activity assay was determined using spectrophotometry, as previously reported, with only minor modifications. In phosphate buffer with a pH of 6.8, 0.5 U/mL of α-glucosidase and the appropriate quantity of p-nitrophenyl-D-glucopyranoside (pNGP) were produced. […] Gradient dilution with a phosphate-buffered solution was used to create sample solutions of various concentrations. First, different concentrations of compound (10 μL), an enzyme solution (40 μL), and potassium phosphate buffer (100 μL) were pre-incubated in 96-well plates at 37 °C for 10 min.
(§3) The enzymatic inhibitory activity of the tested compounds was calculated using the following formula: Inhibition %=[(Abs control−Abs sample)/Abs control]×100
(§4) The IC50 values of the tested compounds were calculated using nonlinear fitting (logit method).

[2] = test system: db/db mice; assay: Postprandial blood glucose level measurement after oral starch load; type: in vivo; details: 100 mg/kg, oral starch 2 g/kg
Procedure: db/db mice and C57BL/6J mice were purchased f0rom Beijing Zhishan Health Medical Research Institute. The animal testing procedure was approved by Beijing Huayuan Times Technology Co., Ltd Ethics Committee on the Management and Welfare of Laboratory Animals. (Ethics review batch number: HYSD2023-04) and strictly follows the local and national codes of ethics. All mice were placed in a control chamber at 25 °C and 60% relative humidity with a light/dark period of 12/12 h. During this period, all mice had free access to normal feed and water. […] All mice were given starch (2 g/kg) orally 60 min after treatment. Blood samples were taken from the caudal vein and blood glucose was measured after 0, 30, 60, and 120 min. The area under the curve (AUC) was calculated using the trapezoidal rule.

[3] = biological target: T2, α-amylase (Sus scrofa, UniProt P00690); assay: In vitro α-amylase activity assay (G3-CNP, absorbance 405 nm); type: biochemical, porcine; details: for inhibition at 500 µM: read-out: α-Amylase inhibition
T2 construct: α-amylase (EC 232-565-6, powder, ≥5 units/mg solid) isolated from porcine pancreas; purchased Sigma-Aldrich Co; host or cells: porcine pancreas
T2 sequence (P00690 16-511): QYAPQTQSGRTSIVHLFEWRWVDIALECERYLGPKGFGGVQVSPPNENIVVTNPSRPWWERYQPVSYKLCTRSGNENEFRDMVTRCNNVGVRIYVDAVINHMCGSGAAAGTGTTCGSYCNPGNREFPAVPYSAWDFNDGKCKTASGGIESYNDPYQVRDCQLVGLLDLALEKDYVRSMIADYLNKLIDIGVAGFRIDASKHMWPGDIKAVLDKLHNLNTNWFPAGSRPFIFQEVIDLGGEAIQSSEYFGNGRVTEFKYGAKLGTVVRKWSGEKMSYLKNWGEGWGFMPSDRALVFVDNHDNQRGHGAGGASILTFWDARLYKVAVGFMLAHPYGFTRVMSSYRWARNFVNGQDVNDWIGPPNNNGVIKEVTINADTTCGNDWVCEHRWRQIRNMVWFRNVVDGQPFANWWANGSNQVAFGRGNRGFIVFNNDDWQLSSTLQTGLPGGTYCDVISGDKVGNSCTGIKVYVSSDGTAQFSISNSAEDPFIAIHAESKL
Procedure: as §1
as §2, with “modifications. A total” for “modifications. In phosphate buffer with a pH”, “of 5” for “of 6.8, 0.5”, “of α-amylase” for “of α-glucosidase”, “of 2-chloro-4-nitrophenyl α-D-maltotrioside (G3-CNP)” for “of p-nitrophenyl-D-glucopyranoside (pNGP)”
as §3, §4

[4] = read-out: α-amylase inhibition IC50±SEM
[5] = read-out: α-glucosidase inhibition IC50±SEM

T1 sequence (P53341 whole entry): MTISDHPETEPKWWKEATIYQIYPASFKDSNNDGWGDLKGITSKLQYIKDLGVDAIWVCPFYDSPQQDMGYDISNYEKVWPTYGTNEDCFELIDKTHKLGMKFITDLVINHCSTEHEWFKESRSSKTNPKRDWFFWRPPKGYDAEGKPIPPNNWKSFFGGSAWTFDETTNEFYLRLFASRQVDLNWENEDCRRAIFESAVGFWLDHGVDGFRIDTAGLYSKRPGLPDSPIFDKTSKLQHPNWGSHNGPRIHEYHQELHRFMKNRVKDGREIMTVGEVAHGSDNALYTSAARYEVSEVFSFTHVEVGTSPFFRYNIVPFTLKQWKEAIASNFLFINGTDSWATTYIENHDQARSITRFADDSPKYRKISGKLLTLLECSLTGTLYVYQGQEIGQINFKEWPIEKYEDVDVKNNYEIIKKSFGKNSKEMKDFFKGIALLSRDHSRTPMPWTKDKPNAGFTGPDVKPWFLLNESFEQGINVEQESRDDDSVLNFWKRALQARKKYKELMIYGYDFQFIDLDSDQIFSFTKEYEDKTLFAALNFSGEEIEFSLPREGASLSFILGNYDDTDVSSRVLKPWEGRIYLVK

| Compound | inhibition at 500 µM [1] [%] | IC50 [1] [µM] | inhibition at 500 µM ([3]; at 500 µM) [%] | IC50 [3, 4] [µM] | also measured |
| --- | --- | --- | --- | --- | --- |
| C[C@H]1O[C@H](O[C@H]2[C@H](O)[C@@H](O)[C@@H](O[C@H]3[C@H](O)[C@@H](O)C(O)O[C@@H]3CO)O[C@@H]2CO)[C@H](O)[C@@H](O)[C@@H]1N[C@H]1C=C(CO)[C@@H](O)[C@H](O)[C@H]1O (stereo partly drawn) [Acarbose, reference compound] | 49 |  |  |  | glucose AUC [2]: 43.0 mmol·h/L; reduction of glucose AUC of diabetic mice ([2]; vs model): 20.31%; inhibition at 500 µM [3]: 99% |
| O=c1cc(-c2ccc(O)cc2)oc2cc(O[C@@H]3O[C@H](CO)[C@@H](O)[C@H](O)[C@H]3O)cc(O)c12 [Apigetrin] | 74 | 187 ± 6.93 | 12 |  | selectivity for glucosidase over α-amylase among the 12 compounds ([1]; inhibition at 500 µM of both enzymes compared): selective inhibition of glucosidase |
| O=c1c(O[C@@H]2O[C@@H](CO)[C@H](O)[C@H]2O)c(-c2ccc(O)c(O)c2)oc2cc(O)cc(O)c12 [Avicularin] | 33 | > 500 | 19 |  | IC50 [3]: > 500 µM |
| O=C(O[C@@H]1Cc2c(O)cc(O)cc2O[C@@H]1c1ccc(O)c(O)c1)c1cc(O)c(O)c(O)c1 [Epicatechin gallate] | 61 | > 250 | 62 | > 250 |  |
| O=c1c(O[C@@H]2O[C@H](CO)[C@H](O)[C@H](O)[C@H]2O)c(-c2ccc(O)c(O)c2)oc2cc(O)cc(O)c12 [Hyperoside] | 48 | > 500 | 28 | > 500 |  |
| O=c1cc(-c2ccc(O)cc2)oc2cc(O)c([C@@H]3O[C@H](CO)[C@@H](O)[C@H](O)[C@H]3O)c(O)c12 [Isovitexin] |  |  | 43 |  | IC50 [3]: > 500 µM |
| O=c1cc(-c2ccccc2)oc2cc(O[C@@H]3O[C@H](CO)[C@@H](O)[C@H](O)[C@H]3O)c(O)c(O)c12 [Oroxin A] | 10 |  | 60 | > 250 | IC50 [1, 5]: > 500 µM |
| O=c1c(O)c(-c2ccc(O)c(O)c2)oc2cc(O[C@@H]3O[C@H](CO)[C@@H](O)[C@H](O)[C@H]3O)c(O)c(O)c12 [Quercetagitrin] | 56 |  | 71 | > 125 | IC50 [1, 5]: > 250 µM |
| C[C@@H]1O[C@@H](Oc2c(-c3ccc(O)c(O)c3)oc3cc(O)cc(O)c3c2=O)[C@H](O)[C@H](O)[C@H]1O [Quercitrin] | 38 | > 500 | 22 | > 500 |  |
| O=C(O)C1OC(Oc2c(-c3ccc(O)c(O)c3)oc3cc(O)cc(O)c3c2=O)C(O)C(O)C1O (stereo not drawn) [Quercituron] | 17 |  | 42 | > 500 | IC50 [1, 5]: > 500 µM |
| O=c1c(O[C@@H]2O[C@H](CO)[C@H](O)[C@H](O)[C@H]2O)c(-c2ccc(O)cc2)oc2cc(O)cc(O)c12 [Trifolin] |  |  | 19 | > 500 |  |
| Catechin gallate |  |  |  |  | α-Glucosidase inhibition ([1]; at 500 µM): 94%; α-Amylase inhibition ([3]; at 500 µM): 82% |
